The values below come from patent US5453417A, “Process for the phosphorylation of insulin and product produced thereby” (The Hospital for Sick Children, priority 1991, dated 1995).

Holding throughout (assay type): in vivo, dog
In assay [1] the test system is diabetic (pancreatectomized) dogs. Description: continuous insulin infusion at Max Rate and reduced rates, plasma glucose plateau under fasting conditions. On the procedure:
The initial step in the protocol involved determining the required insulin infusion rate of either regular or phosphorylated insulin that would, under fasting conditions, reduce plasma glucose from normal at 7:30 a.m. to a plateau of 60 mg %, 2-4 hours later. […] The rate that produced this reduction of blood glucose to 60 mg % was termed "Max Rate".
On subsequent days, identical experiments were conducted on all 4 diabetic dogs with the exception that the animals received a reduced rate of insulin infusion equal to either 1) 62% of the "Max Rate" as shown in FIG. 6 or 2) 36% of the "Max Rate" as shown in FIG. 7.
In this test, the dogs infused with regular insulin reached a glucose threshold of 180 mg % (renal threshold at which the kidneys begin to spill glucose into the urine). The phosphorlated infused dogs reached a lower average glucose level of 120-130 mg %.
All protocols described were conducted in triplicate on all dogs.

For the next assay, the system named is diabetic dogs. Put plainly: continuous 24 hour infusion, increase of infusion rate needed to lower 8 a.m. fasting plasma glucose. Conditions: two diabetic dogs, phosphorylated insulin = product prepared as Example 6 (FIG. 12). As for the experimental part: Two diabetic dogs were fed a single daily meal of 1100 kcal at 2:00 p.m. daily and given regular (i.e. fast acting) insulin at meal time.
In addition, dogs were infused continuously, 24 hours per day with either regular or phosphorylated insulin (product prepared as example 6).
During repeated experiments the minimum insulin infusion rate required to produce a mean 8 a.m. fasting plasma glucose of 95 mg % was determined for each insulin.

Assay [2] has as its system normal, fasted, beagle dogs. Put plainly: intravenous bolus, rate of decline of plasma glucose in 15 minutes following the injection. The conditions noted are these: i.v. bolus, phosphorylated insulin = product of Example 2. As for the experimental part:
Phosphorylated insulin produced by the process described in Example 2 and regular insulin (Iletin II pure Pork) were injected as an intravenous bolus into 4 normal, fasted, beagle dogs. Each insulin was injected at a wide range of dosage with not more than one experiment on each dog on any given day. The plasma glucose of each dog was measured (YSI) at 2 minute intervals for 15 minutes following the injection and the rate of decline of glucose from normal was determined in this period for each individual insulin dose. When the data from FIG. 8 are analysed, it can be shown that the % change in insulin dose required to produce a given increase in glucose drop (glucose disposal) is greater for phosphorylated than for regular (unmodified) insulin. Thus, for example, in Table 4, a 28% increase in dose of regular insulin from that which produced a glucose drop of 3.5 mg %/min., caused the "rate of drop of glucose" to increase from 3.5 to 4.0 mg %/min. A 66 % increase in dose of phosphorylated insulin was required to produce the same effect.

On to “regular insulin: regular (unmodified) insulin, fast acting; Iletin II pure Pork in Example 32 [reference compound]”, for which the plasma glucose plateau in assay [1] (infusion at Max Rate, fasting, last 2 hours, phosphorylated insulin = product of Example 3, 4 diabetic dogs (FIG. 5)) is 60 mg %. In addition, in assay [1] (infusion rate reduced to 36% of Max Rate, phosphorylated insulin = product of Example 3 (FIG. 7)), the “average glucose level reached” value is 180 mg %. The “average plasma glucose plateau” value in assay [1] (infusion rate reduced to 62% of Max Rate, phosphorylated insulin = product of Example 3 (FIG. 6)) amounted to 150 mg %. Also, in the assay with diabetic dogs, the “increase of insulin infusion rate required to drop the fasting glucose from 95 to 70 mg %” value amounted to 20%. In addition, the “Required % Increase In Insulin Dose” value in assay [2] (change in rate of drop of glucose from 1.0 to 1.5 mg %/min) amounted to 49%; in assay [2] (change in rate of drop of glucose from 1.5 to 2.0 mg %/min) it was 33%; in assay [2] (change in rate of drop of glucose from 2.0 to 2.5 mg %/min), 25%; in assay [2] (change in rate of drop of glucose from 2.5 to 3.0 mg %/min), 20%; in assay [2] (change in rate of drop of glucose from 3.0 to 3.5 mg %/min), 39%; in assay [2] (change in rate of drop of glucose from 3.5 to 4.0 mg %/min) it was 28%. The “Required % Increase In Insulin Dose” value in assay [2] (change in rate of drop of glucose from 4.0 to 4.5 mg %/min) amounted to 34%.
